Consider 4 compounds from patent US5652124A (priority 1989, dated 1997).

Like-named read-outs stand apart in the source and are kept apart here.

Data set [1] has as its system α-glucosidase (EC 3.2.1.20) derived from pig liver. Briefly: Stability against hydrolysis by α-glucosidase. The data set is classed as in vitro ADME. From the text:
Acid hydrolysis of the α-glucosyl hesperidin led to the formation of 1 mole of rhamnose and 2 moles of D-glucose per 1 mole hesperidin, while an α-glucosidase, obtained by the extraction from pig liver and partial purification, hydrolyzed α-glucosyl hesperidin into hesperidin and D-glucose.

A further data set relates to dd mice. The experiment in a line: Acute toxicity test. The data set is classed as in vivo. As to conditions: oral, 7 week-old dd mice. The source says: As the result, no mouse died when administered with up to […] of the specimen, and higher dose was difficult.
Data set [2] is described as follows: Improvement of water-solubility: standing of saccharide-transfer reaction solution at 4° C. The data set is classed as physicochemical. As to conditions: 4° C. for 2 days.
The conditions of data set [3]: cited from earlier work.

For α-glycosyl hesperidin, the “hydrolysis by α-glucosidase into hesperidin and D-glucose” value in data set [1] is reported as “hydrolyzable”.

Turning to `COc1ccc(C2CC(=O)c3c(O)cc(O[C@@H]4O[C@H](CO[C@@H]5O[C@@H](C)[C@H](O)[C@@H](O)[C@H]5O)[C@@H](O[C@H]5O[C@H](CO)[C@@H](O)[C@H](O)[C@H]5O)[C@H](O)[C@H]4O)cc3O2)cc1O` (stereo partly drawn) [α-glycosyl hesperidin specimen [II]], the “toxicity (conclusion in words)” value in the data set on dd mice is “extremely low”.

With `COc1ccc([C@@H]2CC(=O)c3c(O)cc(O[C@@H]4O[C@H](CO[C@@H]5O[C@@H](C)[C@H](O)[C@@H](O)[C@H]5O)[C@@H](O)[C@H](O)[C@H]4O)cc3O2)cc1O` [hesperidin], in data set [2], the “appearance of solution after standing” value is “white turbidity”. In data set [3] (ambient temperature), the solubility in water result is listed as “about 0.002 w/v %” and the “solubility in water (weight per volume of water)” value is “about 1 g in 50 liters of water”. Moreover, the “solubility in water (in words)” value in data set [3] is reported as “hardly soluble”.

With `COc1ccc(C2CC(=O)c3c(O)cc(O[C@@H]4O[C@H](CO[C@@H]5O[C@@H](C)[C@H](O)[C@@H](O)[C@H]5O)[C@@H](O[C@H]5O[C@H](CO)[C@@H](O)[C@H](O)[C@H]5O)[C@H](O)[C@H]4O)cc3O2)cc1O` (stereo partly drawn) [α-glucosyl hesperidin], the “hydrolysis by α-glucosidase into hesperidin and D-glucose” value in data set [1] (α-glucosidase from pig liver) is listed as “hydrolyzed”.
